Among the data in patent US20170081323A1 (priority 2015, published 2017) are IC50 values, retold here.

One experiment has as its system influenza A virus (IAV) A/Aichi/2/68 (H3N2). Briefly: microbe, parasite or virus in culture. The conditions noted are these: H3N2, MDCK, 48 h, read-out: CPE. Type of experiment: cell-based, influenza A virus A/Aichi/2/68 (H3N2) on MDCK cells.
As for `O=c1[nH]nc2ccc(-c3ccccc3Cl)c(Oc3ccccc3)n12`, the IC50 was greater than 50 µM. `O=c1[nH]nc2ccc(-c3ccccc3-c3ccncc3)cn12`: the IC50 is greater than 50 µM. With `O=c1[nH]nc2ccc(Br)c(Oc3ccccc3)n12`, the IC50 was greater than 50 µM.

For `O=c1[nH]nc2ccc(-c3cccc(-c4ccccc4)c3)cn12`, the IC50 is greater than 50 µM. With `O=c1[nH]nc2cccc(Oc3ccccc3)n12`, the IC50 is greater than 50 µM. With `O=c1[nH]nc2ccc(Br)cn12`, the IC50 is greater than 50 µM. `O=c1[nH]nc2c(-c3ccccc3)cccn12`: the IC50 is greater than 50 µM. On to `O=c1[nH]nc2ccc(-c3cccc(Cl)c3)cn12`, for which the IC50 is greater than 50 µM. Regarding `COc1ccc(-c2ccc3n[nH]c(=O)n3c2)c(Cl)c1`, the IC50 is greater than 50 µM. Consider `O=c1[nH]nc2ccc(-c3cccc(F)c3)cn12`, for which the IC50 is greater than 50 µM. Still for that read-out and setting: under `O=c1[nH]nc2ccc(-c3cccc(F)c3F)cn12` stands greater than 50 µM; under `O=c1[nH]nc2ccc(-c3cccc4ccccc34)cn12`, greater than 50 µM.

Take `O=c1[nH]nc2ccc(-c3ccccc3-c3ccccc3)cn12`: the IC50 was greater than 50 µM.

In the case of `O=c1[nH]nc2ccc(-c3ccc(-c4ccccc4)cc3)cn12`, the IC50 was greater than 50 µM. Still for that read-out and setting: under `O=c1[nH]nc2n1C(OCC1CC1)CCC2` (centres unmarked) stands greater than 50 µM; under `O=c1[nH]nc2cc(-c3ccccc3)ccn12`, greater than 50 µM.

Regarding `O=c1[nH]nc2ccc(-c3ccccc3)c(OCC3CC3)n12`, the IC50 is greater than 50 µM. Still for that read-out and setting: under `O=c1[nH]nc2cccc(C#CC3CC3)n12` stands greater than 50 µM; under `O=c1[nH]nc2ccc(-c3ccccc3)cn12`, greater than 50 µM; under `O=c1[nH]nc2cccc(-c3ccccc3)n12`, greater than 50 µM. Take `O=c1[nH]nc2ccc(Oc3ccccc3)cn12`: the IC50 is greater than 50 µM.

Regarding `Cc1ccc(C)c(-c2ccc3n[nH]c(=O)n3c2)c1`, the IC50 is greater than 50 µM. As for `O=C1NNC2CCCC(CCC3CC3)N12` (centres unmarked), the IC50 was greater than 50 µM. Regarding `O=c1[nH]nc2ccc(-c3ccccc3-c3cccc(F)c3)cn12`, the IC50 was greater than 50 µM.

On to `O=c1[nH]nc2ccc(-c3ccccc3Cl)cn12`, for which the IC50 was greater than 50 µM. Turning to `O=c1[nH]nc2ccc(-c3ccccc3Cl)c(OCC3CC3)n12`, the IC50 was greater than 50 µM. On to `O=c1[nH]nc2ccc(-c3ccc(Cl)cc3)cn12`, for which the IC50 is greater than 50 µM. With `O=c1[nH]nc2cccc(-c3ncccn3)n12`, the IC50 was greater than 50 µM.

The same experiment, now with this note: H3N2, MDCK, 48 h, read-out: CPE IC50.
For the compound `O=c1[nH]nc2ccc(-c3cccc(-c4c(F)cccc4F)c3)cn12`, the IC50 was 34.9 µM.
